Results: ChEMBL document CHEMBL5032540, “Design, Synthesis, and Biological Evaluation of Novel EGFR PROTACs Targeting Del19/T790M/C797S Mutation” (ACS Med Chem Lett, 2022)
One block for each compound: values may come before it. The source made the active and inactive calls. No cut-off for these calls is given here.

Key:
[1] = system: Epidermal growth factor receptor (Homo sapiens), P00533 [UNDEFINED MUTATION]; assay: Induction of EGFR del19 mutant degradation in human HCC827 cells assessed as decrease in EGFR protein level at 0.005 to 0.5 uM measured after 3 hrs by Western blot assay; type: cell-based; conditions: dose 0.005-0.5 µM
[2] = system: Epidermal growth factor receptor (Homo sapiens), P00533 [L858R]; assay: Induction of EGFR L858R mutant degradation in human […] cells assessed as decrease in EGFR protein level at 0.005 to 0.5 uM measured after 3 hrs by Western blot assay; type: cell-based; conditions: NCI-H3255, dose 0.005-0.5 µM
BaF3 [3] = assay: Induction of EGFR del19/T790M/C797S triple mutant degradation in mouse BaF3 cells at 0.1 uM measured after 3 to 24 hrs by Western blot analysis; type: cell-based; conditions: time 3-24 hrs
BaF3 [4] = assay: Induction of EGFR del19/T790M/C797S triple mutant degradation in mouse BaF3 cells after 3 hrs by immunoblotting analysis; type: cell-based; conditions: dose 0.001-10 µM
BaF3 [5] = assay: Induction of EGFR del19/T790M/C797S triple mutant degradation in mouse BaF3 cells at 0.1 uM measured after 3 hrs by Western blot analysis relative to control; type: cell-based
BaF3 [6] = assay: Induction of EGFR del19/T790M/C797S triple mutant degradation in mouse BaF3 cells at 0.1 uM preincubated for 2 hrs with proteosome inhibitor MG132 followed by compound addition and measured after 3 hrs by Western blot analysis; type: cell-based
BaF3 [7] = assay: Induction of EGFR del19/T790M/C797S triple mutant degradation in mouse BaF3 cells at 0.1 uM preincubated for 3 hrs with EGFR inhibitor 3 followed by compound addition and measured after 3 hrs by Western blot analysis; type: cell-based
BaF3 [8] = assay: Antiproliferative activity against mouse BaF3 cells expressing EGFR del19/T790M/C797S triple mutant assessed as cell growth inhibition measured after 72 hrs by CCK8 assay; type: functional, cell-based; conditions: BaF3, 72 h
NCI-H1975 = assay: Antiproliferative activity against human NCI-H1975 cells expressing EGFR L858R/T790M double mutant assessed as cell growth inhibition after 72 hrs by CCK-8 assay; type: functional, cell-based; conditions: NCI-H1975, 72 h
BaF3 [9] = assay: Induction of EGFR del19/T790M/C797S triple mutant degradation in mouse BaF3 cells at 1 uM after 3 hrs by immunoblotting analysis relative to control; type: cell-based
BaF3 [10] = assay: Inhibition of ERK phosphorylation in mouse BaF3 cells expressing EGFR del19/T790M/C797S triple mutant after 3 hrs by Western blot analysis; type: cell-based; conditions: dose 0.001-10 µM
[11] = target: Epidermal growth factor receptor (Homo sapiens) (UniProt P00533); assay: Induction of EGFR degradation in human A-431 cells assessed as decrease in EGFR protein level at 0.005 to 0.5 uM measured after 3 hrs by Western blot assay; type: cell-based; conditions: dose 0.005-0.5 µM
[12] = target: RAC-alpha serine/threonine-protein kinase (Mus musculus) (UniProt P31750); assay: Inhibition of Akt phosphorylation in mouse BaF3 cells expressing EGFR del19/T790M/C797S triple mutant after 3 hrs by Western blot analysis; type: cell-based; conditions: dose 0.001-10 µM
RAC-alpha serine/threonine-protein kinase (Mus musculus), sequence (P31750 whole entry): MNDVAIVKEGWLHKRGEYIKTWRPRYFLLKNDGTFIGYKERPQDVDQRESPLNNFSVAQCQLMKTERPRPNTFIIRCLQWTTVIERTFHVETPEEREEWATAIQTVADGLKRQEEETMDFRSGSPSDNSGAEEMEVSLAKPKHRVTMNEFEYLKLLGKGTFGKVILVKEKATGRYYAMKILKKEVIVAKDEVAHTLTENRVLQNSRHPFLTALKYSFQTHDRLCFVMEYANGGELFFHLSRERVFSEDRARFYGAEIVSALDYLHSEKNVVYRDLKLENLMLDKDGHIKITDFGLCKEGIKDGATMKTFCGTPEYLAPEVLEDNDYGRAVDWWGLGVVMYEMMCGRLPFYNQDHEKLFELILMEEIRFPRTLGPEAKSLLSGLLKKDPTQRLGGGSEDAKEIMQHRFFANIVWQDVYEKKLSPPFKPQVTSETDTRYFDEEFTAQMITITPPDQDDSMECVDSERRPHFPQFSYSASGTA

NCI-H3255 = assay: Antiproliferative activity against human NCI-H3255 cells expressing L858R mutant assessed as cell growth inhibition after 72 hrs by CCK-8 assay; type: functional, cell-based; conditions: NCI-H3255, 72 h
EML4-ALK (Homo sapiens) = EML4-ALK (Homo sapiens) (UniProt Q9UM73+Q9HC35); assay: Induction of EML4-ALK fusion protein degradation in mouse BaF3 cells at 0.001 to 10 uM after 3 hrs by Western blot analysis; type: cell-based; conditions: dose 0.001-10 µM
EML4-ALK (Homo sapiens), sequence (Q9HC35 whole entry partner, the tested form may be a part): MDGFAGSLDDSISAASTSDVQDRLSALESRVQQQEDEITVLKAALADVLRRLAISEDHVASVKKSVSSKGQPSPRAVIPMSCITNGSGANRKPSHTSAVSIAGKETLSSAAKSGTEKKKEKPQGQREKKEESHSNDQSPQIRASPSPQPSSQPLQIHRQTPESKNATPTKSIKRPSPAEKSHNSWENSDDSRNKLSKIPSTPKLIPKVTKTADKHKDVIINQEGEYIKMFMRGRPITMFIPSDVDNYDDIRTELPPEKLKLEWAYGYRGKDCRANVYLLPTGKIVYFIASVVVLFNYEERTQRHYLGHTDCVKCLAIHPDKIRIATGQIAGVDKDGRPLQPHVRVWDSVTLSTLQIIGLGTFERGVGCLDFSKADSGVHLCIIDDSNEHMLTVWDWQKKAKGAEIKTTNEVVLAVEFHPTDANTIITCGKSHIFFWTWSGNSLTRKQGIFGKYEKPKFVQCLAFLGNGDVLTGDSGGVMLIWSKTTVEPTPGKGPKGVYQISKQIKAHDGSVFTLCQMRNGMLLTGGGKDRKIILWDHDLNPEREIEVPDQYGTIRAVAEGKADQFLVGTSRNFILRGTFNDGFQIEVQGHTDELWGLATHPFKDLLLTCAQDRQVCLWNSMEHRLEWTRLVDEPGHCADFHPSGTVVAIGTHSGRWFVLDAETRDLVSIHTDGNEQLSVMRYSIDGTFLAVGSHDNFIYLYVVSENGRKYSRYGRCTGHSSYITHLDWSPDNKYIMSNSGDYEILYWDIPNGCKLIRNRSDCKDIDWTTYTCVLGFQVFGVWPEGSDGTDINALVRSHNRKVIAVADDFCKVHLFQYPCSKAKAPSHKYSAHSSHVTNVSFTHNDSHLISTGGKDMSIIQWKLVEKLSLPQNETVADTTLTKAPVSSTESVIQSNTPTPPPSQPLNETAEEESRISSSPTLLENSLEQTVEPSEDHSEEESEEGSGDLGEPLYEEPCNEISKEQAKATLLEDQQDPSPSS
EML4-ALK (Homo sapiens), sequence (Q9UM73 19-1620 limits assumed): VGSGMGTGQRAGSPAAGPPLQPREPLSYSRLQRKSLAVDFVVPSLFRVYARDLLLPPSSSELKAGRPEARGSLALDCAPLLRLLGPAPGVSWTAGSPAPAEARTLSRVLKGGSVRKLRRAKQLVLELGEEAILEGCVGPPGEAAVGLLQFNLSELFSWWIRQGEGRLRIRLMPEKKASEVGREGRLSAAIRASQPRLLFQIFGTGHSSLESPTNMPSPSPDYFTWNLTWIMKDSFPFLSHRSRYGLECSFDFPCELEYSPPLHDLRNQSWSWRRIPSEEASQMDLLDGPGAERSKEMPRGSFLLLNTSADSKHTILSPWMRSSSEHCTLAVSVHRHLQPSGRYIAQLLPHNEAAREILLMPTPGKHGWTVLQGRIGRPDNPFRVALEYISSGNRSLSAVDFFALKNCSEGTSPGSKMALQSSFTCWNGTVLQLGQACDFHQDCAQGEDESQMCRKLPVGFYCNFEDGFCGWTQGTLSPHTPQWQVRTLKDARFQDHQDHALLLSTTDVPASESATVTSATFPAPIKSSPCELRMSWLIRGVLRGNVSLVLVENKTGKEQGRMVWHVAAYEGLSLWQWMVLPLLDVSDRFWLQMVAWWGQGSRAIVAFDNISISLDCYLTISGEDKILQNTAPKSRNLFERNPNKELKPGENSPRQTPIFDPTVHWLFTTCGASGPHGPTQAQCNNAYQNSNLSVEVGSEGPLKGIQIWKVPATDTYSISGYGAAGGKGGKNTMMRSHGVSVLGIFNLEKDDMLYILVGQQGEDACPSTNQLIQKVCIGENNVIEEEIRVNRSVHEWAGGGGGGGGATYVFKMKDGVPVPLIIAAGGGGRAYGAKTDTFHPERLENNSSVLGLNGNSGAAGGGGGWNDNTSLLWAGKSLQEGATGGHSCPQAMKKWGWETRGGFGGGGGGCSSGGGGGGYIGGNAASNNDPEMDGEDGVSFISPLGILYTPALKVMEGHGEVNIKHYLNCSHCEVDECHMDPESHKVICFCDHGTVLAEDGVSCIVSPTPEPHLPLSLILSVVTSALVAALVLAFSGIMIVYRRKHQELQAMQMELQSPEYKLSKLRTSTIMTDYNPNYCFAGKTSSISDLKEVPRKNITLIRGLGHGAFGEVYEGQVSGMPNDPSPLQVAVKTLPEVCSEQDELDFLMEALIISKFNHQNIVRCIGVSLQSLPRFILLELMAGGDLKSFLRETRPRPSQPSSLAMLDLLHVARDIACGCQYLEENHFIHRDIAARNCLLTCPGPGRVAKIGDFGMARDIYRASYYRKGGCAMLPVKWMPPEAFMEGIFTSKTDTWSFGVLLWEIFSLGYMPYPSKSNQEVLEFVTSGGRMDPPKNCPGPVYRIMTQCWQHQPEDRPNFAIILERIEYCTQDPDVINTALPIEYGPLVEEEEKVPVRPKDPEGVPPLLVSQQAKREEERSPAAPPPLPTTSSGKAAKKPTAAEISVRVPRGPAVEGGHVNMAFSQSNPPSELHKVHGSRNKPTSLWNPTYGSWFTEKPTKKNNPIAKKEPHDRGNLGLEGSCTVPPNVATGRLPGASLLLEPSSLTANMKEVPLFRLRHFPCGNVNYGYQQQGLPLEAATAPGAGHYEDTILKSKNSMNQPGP

BaF3 [13] = assay: Induction of EGFR del19/T790M/C797S triple mutant degradation in mouse BaF3 cells at 0.01 uM measured after 3 hrs by Western blot analysis relative to control; type: cell-based
[14] = system: Epidermal growth factor receptor (Homo sapiens), P00533 [L858R,T790M]; assay: Induction of EGFR L858R/T790M mutant degradation in human NCI-H1975 cells assessed as decrease in EGFR protein level at 0.005 to 0.5 uM measured after 3 hrs by Western blot assay; type: cell-based; conditions: dose 0.005-0.5 µM
HCC827 = assay: Antiproliferative activity against human HCC827 cells expressing EGFR del19 mutant assessed as cell growth inhibition after 72 hrs by CCK-8 assay; type: functional, cell-based; conditions: HCC827, 72 h
BaF3 [15] = assay: Induction of EGFR del19/T790M/C797S triple mutant degradation in mouse BaF3 cells at 0.1 uM preincubated with compound for 3 hrs followed by compound washout and measured after 24 hrs by Western blot analysis; type: cell-based
A-431 = assay: Antiproliferative activity against human A-431 cells expressing wild-type EGFR assessed as cell growth inhibition after 72 hrs by CCK-8 assay; type: functional, cell-based; conditions: A-431, 72 h
BaF3 [16] = assay: Induction of EGFR del19/T790M/C797S triple mutant degradation in mouse BaF3 cells at 0.1 uM preincubated for 3 hrs with VHL ligand 5 followed by compound addition and measured after 3 hrs by Western blot analysis; type: cell-based
BaF3 [17] = assay: Induction of EGFR del19/T790M/C797S triple mutant degradation in mouse BaF3 cells at 0.01 to 0.1 uM measured after 3 hrs by Western blot analysis; type: cell-based; conditions: dose 0.01-0.1 µM

SMILES: COc1cc(N2CCN(CCCCCCCC(=O)N[C@H](C(=O)N3C[C@H](O)C[C@H]3C(=O)N[C@@H](C)c3ccc(-c4scnc4C)cc3)C(C)(C)C)CC2)ccc1Nc1ncc(Cl)c(Nc2ccccc2P(C)(C)=O)n1
- Activity [1]: Active
- Activity [2]: inactive
- Activity (BaF3 [3]): Active
- Activity (BaF3 [4]): Dose-Dependent Effect
- Activity (BaF3 [5]): 79.1%
- Activity (BaF3 [6]): inactive
- Activity (BaF3 [7]): inactive
- IC50 (BaF3 [8]): 0.02 µM
- IC50 (NCI-H1975): 1.13 µM
- Activity (BaF3 [9]): 49.6%
- inhibition (BaF3 [10]): Dose-Dependent Effect
- Activity [11]: inactive
- inhibition [12]: Dose-Dependent Effect
- IC50 (NCI-H3255): 0.604 µM
- Activity (EML4-ALK (Homo sapiens)): inactive
- Activity (BaF3 [13]): 52%
- Activity [14]: inactive
- IC50 (HCC827): 0.229 µM
- Activity (BaF3 [15]): Active
- IC50 (A-431): 0.526 µM
- Activity (BaF3 [16]): inactive

SMILES: COc1cc(N2CCN(CCCC(=O)N[C@H](C(=O)N3C[C@H](O)C[C@H]3C(=O)N[C@@H](C)c3ccc(-c4scnc4C)cc3)C(C)(C)C)CC2)ccc1Nc1ncc(Cl)c(Nc2ccccc2P(C)(C)=O)n1
- Activity (BaF3 [5]): 22.7%
- IC50 (BaF3 [8]): 0.37 µM
- Activity (BaF3 [13]): 6.2%

SMILES: COc1cc(N2CCN(CCCCCC(=O)N[C@H](C(=O)N3C[C@H](O)C[C@H]3C(=O)N[C@@H](C)c3ccc(-c4scnc4C)cc3)C(C)(C)C)CC2)ccc1Nc1ncc(Cl)c(Nc2ccccc2S(=O)(=O)C(C)C)n1
- Activity (BaF3 [5]): 56.9%
- IC50 (BaF3 [8]): 0.24 µM
- Activity (BaF3 [13]): 48.5%

SMILES: COc1cc(N2CCN(CCCCCCCC(=O)N[C@H](C(=O)N3C[C@@H](O)C[C@H]3C(=O)N[C@@H](C)c3ccc(-c4scnc4C)cc3)C(C)(C)C)CC2)ccc1Nc1ncc(Cl)c(Nc2ccccc2P(C)(C)=O)n1
- Activity (BaF3 [17]): inactive

Further lines, with some results ahead:

- IC50 (BaF3 [8]): 0.05 µM
SMILES: COc1cc(N2CCN(CCCCCC(=O)N[C@H](C(=O)N3C[C@H](O)C[C@H]3C(=O)N[C@@H](C)c3ccc(-c4scnc4C)cc3)C(C)(C)C)CC2)ccc1Nc1ncc(Cl)c(Nc2ccccc2P(C)(C)=O)n1
- Activity (BaF3 [5]): 75.4%
- Activity (BaF3 [13]): 53.7%

- IC50 (BaF3 [8]): 0.07 µM
SMILES: COc1cc(C2CCN(CCCCCC(=O)N[C@H](C(=O)N3C[C@H](O)C[C@H]3C(=O)N[C@@H](C)c3ccc(-c4scnc4C)cc3)C(C)(C)C)CC2)ccc1Nc1ncc(Cl)c(Nc2ccccc2N(C)S(C)(=O)=O)n1
- Activity (BaF3 [5]): 74.1%
- Activity (BaF3 [13]): 58.4%

- IC50 (BaF3 [8]): 0.37 µM
SMILES: COc1cc(C2CCN(CCCCCC(=O)N[C@H](C(=O)N3C[C@H](O)C[C@H]3C(=O)N[C@@H](C)c3ccc(-c4scnc4C)cc3)C(C)(C)C)CC2)ccc1Nc1ncc(Cl)c(Nc2ccccc2NS(C)(=O)=O)n1
- Activity (BaF3 [5]): 35.2%
- Activity (BaF3 [13]): 14%
